Consider eight compounds from ChEMBL document CHEMBL3616376, “Anti-proliferative activity of Monensin and its tertiary amide derivatives” (Bioorg Med Chem Lett, 2015).

Molecules are shown by their SMILES.

For test [1], the system named is MV4-11. Briefly: Antiproliferative activity against human MV4-11 cells. In kind it is functional, cell-based.
Test [2] in a line: Selectivity index, ratio of IC50 for mouse BALB/3T3 cells to IC50 for human LoVo/Dx cells. In kind it is functional.
Test [3] is described as follows: Selectivity index, ratio of IC50 for mouse BALB/3T3 cells to IC50 for human LoVo cells. In kind it is functional.
Test [4] concerns LoVo. In words: Resistance index, ratio of IC50 for human LoVo/DX cells to IC50 for human LoVo cells. In kind it is functional.
The subject of test [5] is BALB/3T3. In words: Cytotoxicity against mouse BALB/3T3 cells. The class given is cell-based.
Test [6] in a line: Antiproliferative activity against human LoVo/DX cells. In kind it is functional, cell-based.
Test [7] is described as follows: Selectivity index, ratio of IC50 for mouse BALB/3T3 cells to IC50 for human MV4-11 cells. In kind it is functional.
Test [8] has as its system LoVo. In words: Antiproliferative activity against human LoVo cells. In kind it is functional, cell-based.

The IC50 is the concentration at which inhibition is half-maximal. For `CC[C@@]1([C@@H]2O[C@@H]([C@H]3O[C@@](O)(CO)[C@H](C)C[C@@H]3C)C[C@@H]2C)CC[C@H]([C@]2(C)CC[C@]3(C[C@H](O)[C@@H](C)[C@@H]([C@@H](C)[C@@H](OC)[C@H](C)C(=O)O)O3)O2)O1` [MONENSIN], the IC50 in test [1] stood at 0.09 µM; in test [5], 20.9 µM; in test [6] it was 0.61 µM; in test [8], 1.09 µM. The “Ratio IC50” value in test [2] was 34.25; in test [3], 19.17; in test [4], 0.56; in test [7], 232.11.

In the case of `CC[C@@]1([C@@H]2O[C@@H]([C@H]3O[C@@](O)(CO)[C@H](C)C[C@@H]3C)C[C@@H]2C)CC[C@H]([C@]2(C)CC[C@]3(C[C@H](O)[C@@H](C)[C@@H]([C@@H](C)[C@@H](OC)[C@H](C)C(=O)N4CCNCC4)O3)O2)O1`, the IC50 is 3.24 µM in test [1], 33 µM in test [5], 20.7 µM in test [6] and 8.65 µM in test [8]. Moreover, the “Ratio IC50” value is on record as 1.6 in test [2], 3.82 in test [3], 2.39 in test [4] and 10.19 in test [7].

In the case of `CCN(CC)C(=O)[C@@H](C)[C@H](OC)[C@H](C)[C@H]1O[C@@]2(CC[C@@](C)([C@H]3CC[C@@](CC)([C@@H]4O[C@@H]([C@H]5O[C@@](O)(CO)[C@H](C)C[C@@H]5C)C[C@@H]4C)O3)O2)C[C@H](O)[C@H]1C`, the IC50 was 5.44 µM in test [1], 28.1 µM in test [5], 4.63 µM in test [6] and 10.7 µM in test [8]. Besides, the “Ratio IC50” value is recorded as 6.07 in test [2], 2.63 in test [3], 0.43 in test [4] and 5.17 in test [7].

As for `CC[C@@]1([C@@H]2O[C@@H]([C@H]3O[C@@](O)(CO)[C@H](C)C[C@@H]3C)C[C@@H]2C)CC[C@H]([C@]2(C)CC[C@]3(C[C@H](O)[C@@H](C)[C@@H]([C@@H](C)[C@@H](OC)[C@H](C)C(=O)N(CCOC)CCOC)O3)O2)O1`, the IC50 in test [1] came out at 27.5 µM; in test [5], 42 µM; in test [6], 10.1 µM; in test [8], 36.6 µM. Moreover, the “Ratio IC50” value in test [2] was found to be 4.16; in test [3], 1.15; in test [4] it was 0.28; in test [7], 1.53.

For `CCCN(CCC)C(=O)[C@@H](C)[C@H](OC)[C@H](C)[C@H]1O[C@@]2(CC[C@@](C)([C@H]3CC[C@@](CC)([C@@H]4O[C@@H]([C@H]5O[C@@](O)(CO)[C@H](C)C[C@@H]5C)C[C@@H]4C)O3)O2)C[C@H](O)[C@H]1C`, the 50% inhibitory concentration (IC50) came to 5.96 µM in test [1], 7.73 µM in test [5], 6.09 µM in test [6] and 4.35 µM in test [8]. For the same compound, the “Ratio IC50” value in test [2] is on record as 1.27; in test [3], 1.78; in test [4], 1.4; in test [7], 1.3.

For `CC[C@@]1([C@@H]2O[C@@H]([C@H]3O[C@@](O)(CO)[C@H](C)C[C@@H]3C)C[C@@H]2C)CC[C@H]([C@]2(C)CC[C@]3(C[C@H](O)[C@@H](C)[C@@H]([C@@H](C)[C@@H](OC)[C@H](C)C(=O)N(Cc4ccccc4)Cc4ccccc4)O3)O2)O1`, the IC50 in test [1] is 3.28 µM; in test [5], 13.1 µM; in test [6], 3.78 µM; in test [8], 3.71 µM. The “Ratio IC50” value came out at 3.46 in test [2], 3.53 in test [3], 1.02 in test [4] and 3.99 in test [7].

`CC[C@@]1([C@@H]2O[C@@H]([C@H]3O[C@@](O)(CO)[C@H](C)C[C@@H]3C)C[C@@H]2C)CC[C@H]([C@]2(C)CC[C@]3(C[C@H](O)[C@@H](C)[C@@H]([C@@H](C)[C@@H](OC)[C@H](C)C(=O)N4CCOCC4)O3)O2)O1`: the IC50 is 2.51 µM in test [1], 49.6 µM in test [5], 4.86 µM in test [6] and 19.8 µM in test [8]. Further, the “Ratio IC50” value in test [2] amounted to 10.21; in test [3] it was 2.5; in test [4], 0.25; in test [7], 19.78.

In the case of `COc1cccc2c1C(=O)c1c(O)c3c(c(O)c1C2=O)C[C@@](O)(C(=O)CO)C[C@@H]3O[C@H]1C[C@H](N)[C@H](O)[C@H](C)O1` [DOXORUBICIN], the “Ratio IC50” value in test [2] was found to be 0.08; in test [3] it was 1.89; in test [4], 23.62. The IC50 came to 0.53 µM in test [5], 6.73 µM in test [6] and 0.28 µM in test [8].
